Reference: PubChem BioAssay (NCI)
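Where inhibition never reached the appropriate level, the endpoint shown equals the highest concentration tested. Otherwise, values were interpolated linearly from a five-concentration, 48-hour dose response in 96-well plates. TGI is the concentration that stops growth completely.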

How the values were obtained:
Assay in all cases: NCI tumour cell line growth inhibition, 48 h
[1] = tested on: P388 leukemia
[2] = tested on: OVCAR-8 ovarian
[3] = tested on: MALME-3M melanoma
[4] = tested on: HL-60(TB) leukemia
[5] = tested on: SN12C renal
[6] = tested on: U251 CNS
[7] = tested on: HCC-2998 colon
[8] = tested on: SK-OV-3 ovarian
[9] = tested on: DMS 273 small cell lung
[10] = tested on: KM20L2 colon
[11] = tested on: CCRF-CEM leukemia
[12] = tested on: SF-268 CNS
[13] = tested on: KM12 colon
[14] = tested on: M19-MEL melanoma
[15] = tested on: OVCAR-4 ovarian
[16] = tested on: COLO 205 colon
[17] = tested on: DLD-1 colon
[18] = tested on: SNB-19 CNS
[19] = tested on: SN12K1 renal
[20] = tested on: SNB-75 CNS
[21] = tested on: P388/ADR leukemia
[22] = tested on: HOP-18 NSCLC
[23] = tested on: SK-MEL-2 melanoma
[24] = tested on: MCF7 breast
[25] = tested on: HCT-15 colon
[26] = tested on: SNB-78 CNS
[27] = tested on: SW-620 colon
[28] = tested on: A498 renal
[29] = tested on: HCT-116 colon
[30] = tested on: HOP-92 NSCLC
[31] = tested on: EKVX NSCLC
[32] = tested on: NCI-H226 lung
[33] = tested on: CAKI-1 renal
[34] = tested on: UO-31 renal
[35] = tested on: HT29 colon
[36] = tested on: NCI-H460 lung
[37] = tested on: RPMI-8226 leukemia
[38] = tested on: UACC-62 melanoma
[39] = tested on: OVCAR-5 ovarian
[40] = tested on: XF 498 CNS
[41] = tested on: K-562 leukemia
[42] = tested on: LOX IMVI melanoma
[43] = tested on: NCI-H23 lung
[44] = tested on: NCI-H522 lung
[45] = tested on: SF-539 CNS
[46] = tested on: DMS 114 small cell lung
[47] = tested on: NCI/ADR-RES ovarian
[48] = tested on: RXF 393 renal
[49] = tested on: UACC-257 melanoma
[50] = tested on: HOP-62 NSCLC
[51] = tested on: IGROV1 ovarian
[52] = tested on: A549 NSCLC
[53] = tested on: MOLT-4 leukemia
[54] = tested on: SK-MEL-5 melanoma
[55] = tested on: OVCAR-3 ovarian
[56] = tested on: SF-295 CNS
[57] = tested on: SK-MEL-28 melanoma
[58] = tested on: T-47D breast
[59] = tested on: SR leukemia
[60] = tested on: BT-549 breast
[61] = tested on: M14 melanoma
[62] = tested on: MDA-MB-231 breast
[63] = tested on: MDA-N
[64] = tested on: DU-145 prostate
[65] = tested on: LXFL 529 NSCLC
[66] = tested on: ACHN renal
[67] = tested on: MDA-MB-435
[68] = tested on: HS 578T breast
[69] = tested on: RXF-631 renal
[70] = tested on: PC-3 prostate
[71] = tested on: 786-0 renal
[72] = tested on: TK-10 renal

Structure (SMILES): Nc1nc2[nH]c(=O)cnc2c(=O)[nH]1
- TGI [1]: > 125 µM
- TGI [2]: > 125 µM
- TGI [3]: > 125 µM
- TGI [4]: > 125 µM
- TGI [5]: > 125 µM
- TGI [6]: > 125 µM
- TGI [7]: > 125 µM
- TGI [8]: > 125 µM
- TGI [9]: > 125 µM
- TGI [10]: > 91.4 µM
- TGI [11]: > 125 µM
- TGI [12]: > 125 µM
- TGI [13]: > 125 µM
- TGI [14]: > 85.2 µM
- TGI [15]: > 125 µM
- TGI [16]: > 125 µM
- TGI [17]: > 125 µM
- TGI [18]: > 125 µM
- TGI [19]: > 125 µM
- TGI [20]: > 125 µM
- TGI [21]: > 125 µM
- TGI [22]: > 5.8 µM
- TGI [23]: > 125 µM
- TGI [24]: > 125 µM
- TGI [25]: > 78.9 µM
- TGI [26]: > 125 µM
- TGI [27]: > 125 µM
- TGI [28]: > 125 µM
- TGI [29]: > 125 µM
- TGI [30]: > 125 µM
- TGI [31]: > 125 µM
- TGI [32]: > 125 µM
- TGI [33]: > 125 µM
- TGI [34]: > 125 µM
- TGI [35]: > 125 µM
- TGI [36]: > 125 µM
- TGI [37]: > 125 µM
- TGI [38]: > 125 µM
- TGI [39]: > 107 µM
- TGI [40]: > 125 µM
- TGI [41]: > 125 µM
- TGI [42]: > 125 µM
- TGI [43]: > 125 µM
- TGI [44]: > 19.8 µM
- TGI [45]: > 125 µM
- TGI [46]: > 125 µM
- TGI [47]: > 125 µM
- TGI [48]: > 125 µM
- TGI [49]: > 125 µM
- TGI [50]: > 125 µM
- TGI [51]: > 125 µM
- TGI [52]: > 125 µM
- TGI [53]: > 125 µM
- TGI [54]: > 125 µM
- TGI [55]: > 125 µM
- TGI [56]: > 125 µM
- TGI [57]: > 125 µM

Structure (SMILES): CCOC(=O)/C(=C\c1ccccc1)C(=O)CCN1CCOCC1
- TGI [1]: 3.66 µM
- TGI [2]: 18.4 µM
- TGI [3]: 7.85 µM
- TGI [4]: 3.38 µM
- TGI [5]: 19.7 µM
- TGI [58]: 40.5 µM
- TGI [6]: 21.6 µM
- TGI [7]: 32.6 µM
- TGI [59]: 9.11 µM
- TGI [8]: 50.5 µM
- TGI [9]: 27.3 µM
- TGI [10]: 30.9 µM
- TGI [11]: 3.95 µM
- TGI [12]: 27.8 µM
- TGI [13]: 23.1 µM
- TGI [14]: 11.8 µM
- TGI [60]: 33.6 µM
- TGI [15]: 33.6 µM
- TGI [61]: 18 µM
- TGI [16]: 8.93 µM
- TGI [17]: 6.96 µM
- TGI [62]: 27.1 µM
- TGI [18]: 51.5 µM
- TGI [19]: 19.4 µM
- TGI [20]: 38.3 µM
- TGI [21]: > 21.7 µM
- TGI [22]: 28.6 µM
- TGI [23]: 42.4 µM
- TGI [24]: 23.8 µM
- TGI [25]: 9.63 µM
- TGI [26]: 36.5 µM
- TGI [27]: 5.19 µM
- TGI [28]: 31.1 µM
- TGI [63]: 18.7 µM
- TGI [29]: 34.9 µM
- TGI [30]: 17.2 µM
- TGI [64]: 39.2 µM
- TGI [31]: 34.7 µM
- TGI [32]: 45.9 µM
- TGI [33]: 9.51 µM
- TGI [65]: 3.52 µM
- TGI [66]: 13.4 µM
- TGI [34]: 31.2 µM
- TGI [35]: 25.1 µM
- TGI [36]: 30 µM
- TGI [37]: 6.07 µM
- TGI [38]: 12.5 µM
- TGI [39]: 31.8 µM
- TGI [41]: 4.87 µM
- TGI [42]: 8.54 µM
- TGI [67]: 40.1 µM
- TGI [43]: 24.9 µM
- TGI [44]: 3.43 µM
- TGI [45]: 16 µM
- TGI [68]: > 100 µM
- TGI [46]: 14.6 µM
- TGI [69]: 28.8 µM
- TGI [47]: 32.5 µM
- TGI [48]: 6.09 µM
- TGI [49]: 11 µM
- TGI [50]: 40.8 µM
- TGI [70]: 24.7 µM
- TGI [71]: 21.9 µM
- TGI [51]: 29.9 µM
- TGI [52]: 53.1 µM
- TGI [53]: 5.3 µM
- TGI [54]: 25.3 µM
- TGI [55]: 18.6 µM
- TGI [72]: 19.9 µM
- TGI [56]: 38.3 µM
- TGI [57]: 10.1 µM
